Measured values reported in patent publication US9937180B2, “Constrained tricyclic sulfonamides” (ICAHN SCHOOL OF MEDICINE AT MOUNT SINAI, priority 2014, dated 2018).
Several values for one entry are separate records, joined by “and”; a condition that tells them apart may be missing. Equal entries are not always repeated. Blank lines part the entries; values can stand above or below the molecule they belong to.

Assays:
H1650 = H1650 Cell Viability Assays (GI50 Determination), MTT; assay type: cell-based; conditions: Homo sapiens, NCI-H1650, H1650 cells, 48 hours after drug treatment
Description: H1650 Cell Viability Assays (GI50 Determination)
Cell viability assays were performed according to Denizot, F. and R. Lang, Rapid colorimetric assay for cell growth and survival: Modifications to the tetrazolium dye procedure giving improved sensitivity and reliability Journal of Immunological Methods, 1986. 89[…]: p. 271-277.
Cells were plated at 150,000 cells per well in a 12 well plate. Twenty-four hours after plating, cells were treated as described with increasing concentrations of drug and control. Forty-eight hours after drug treatment, cells were treated with 100 uL of 3-(4,5-Dimethylthiazol-2-yl)-2,5-diphenyltetrazolium bromide (MTT) and incubated for 2 hours at 37 C. The MTT solution was subsequently replaced with 300 uL of n-propyl alcohol and re-aliquoted to a 96 well plates. Spectrophotometric analysis of each solution was performed using a 96 well plate reader at 600 nm in triplicate.

Molt4 cells = assay: MTS Cell Proliferation Assay (CellTiter96 AQueous); assay type: cell-based; conditions: Homo sapiens, MOLT-4, 48 hours, average of 3 biological replicates
Description: MTS Cell Proliferation Assay GI50 for Example 3a and 3b for Molt4 cells was measured using the CellTiter96 AQueous Non-Radioactive Cell Proliferation Assay (Promega). Briefly, two technical replicates of 1×10^5 cells suspended in 50 μL RPMI-1640 media were pipetted per well into a 96-well plate for each condition. An equal volume of Example 3a or 3b was dissolved in media or vehicle control (DMSO) was added to each well for final concentration of 0, 5, 10, 15, 20, 30, 40, or 80 μM of 3a or 3b. Cells were allowed to grow for 48 hours at 37° C. with 5% CO2, after which 20 μL of MTS/PMS solution was added to each well and cells were incubated for an additional 4 hrs. At the end of the incubation period, A490 was read on a Biotek uQuant spectrophotometer to measure formazen production. Relative viability was calculated as A490 for each drug condition relative to vehicle alone.

[1] = system: prostate cancer cell line LNCaP; assay: Mouse Tumor Assay: subcutaneous xenograft of prostate cancer cell line LNCaP; assay type: in vivo; conditions: LNCaP xenograft in male SCID nude castrated mice, 100 mg/kg BID oral gavage
Description: (§1) Mouse Tumor Assay To assess the in vivo effects of the compounds, subcutaneous xenograft of prostate cancer cell line LNCaP was generated. Cells (5×10^6, 0.1 mL in 1:1 Matrigel:Media) were injected into the right flank of 8-week-old male SCID nude castrated mice (NCI). Tumor volume was assessed three times a week by caliper measurement. Mice were randomized to treatment groups based on initial tumor volume average of 247 mm^3 per group. Mice were dosed by oral gauvage with 100 mg/kg of Example 3a twice daily (BID) as a suspension in 0.1% Tween80/0.5% sodium carboxymethylcellulose (CMC) in water. […] Mouse body weights were recorded weekly and percentage of mice body weights during treatment was calculated as: weight at each time point/initial weight×100. […] Mice underwent treatment for 31 days and were sacrificed 2 hours after the last dose. Tumors were then excised and cut for both formalin-fixation and snap frozen in liquid nitrogen. No statistically significant toxicity was observed as judged from animal body weights of compound treated groups versus vehicle control group.

[2] = Observation for signs of toxicity and body weights in the mouse tumor assay; assay type: in vivo; conditions: mice, 100 mg/kg BID oral, 31 days
Description: as §1, with “To” for “Mouse Tumor Assay To”

GI50 (H1650): 5 µM
Compound: O=S(=O)(N[C@@H]1CCCC(N2c3ccccc3CCc3ccccc32)[C@H]1O)c1ccc(OC(F)(F)F)cc1 (relative stereo) [Example 1, N-((1,2-trans)-3-(10,11-dihydro-5H-dibenzo[b,f]azepin-5-yl)-2-hydroxycyclohexyl)-4-(trifluoromethoxy)benzenesulfonamide]

GI50 (Molt4 cells): 8 µM | GI50 (H1650): 5 µM
Compound: O=S(=O)(N[C@@H]1CCC[C@H](N2c3ccccc3CCc3ccccc32)[C@H]1O)c1ccc(OC(F)(F)F)cc1 [Example 3b]

GI50 (H1650): 15 µM
Compound: [N-]=[N+]=Nc1ccc(S(=O)(=O)N[C@@H]2CCCC(N3c4ccccc4CCc4ccccc43)[C@H]2O)cc1 (stereo in doubt) [Example 5, N-(3-(10,11-dihydro-5H-dibenzo[b,f]azepin-5-yl)-2-hydroxycyclohexyl)-4-(azido)benzenesulfonamide]

GI50 (H1650): 15 µM
Compound: CC(C)(O)c1ccc(S(=O)(=O)N[C@H]2CCC[C@@H](N3c4ccccc4CCc4ccccc43)[C@@H]2O)cc1 [Example 27, N-((1S,2S,3R)-3-(10,11-dihydro-5H-dibenzo[b,f]azepin-5-yl)-2-hydroxycyclohexyl)-4-(2-hydroxypropan-2-yl)benzenesulfonamide]

GI50 (H1650): 5 µM
Compound: O=S(=O)(N[C@H]1CCC[C@@H](N2c3ccccc3CCc3ccccc32)[C@@H]1O)c1ccc(SC(F)(F)F)cc1 [Example 28, N-(3-(10,11-dihydro-5H-dibenzo[b,f]azepin-5-yl)-2-hydroxycyclohexyl)-4-((trifluoromethyl)thio)benzenesulfonamide]

GI50 (H1650): 15 µM
Compound: O=S(=O)(N[C@@H]1CCC(N2c3ccccc3CCc3ccccc32)[C@H]1O)c1ccc(OC(F)(F)F)cc1 (relative stereo) [Example 17, N-((1S,2S,3R)-rel-3-(10,11-dihydro-5H-dibenzo[b,f]azepin-5-yl)-2-hydroxycyclopentyl)-4-(trifluoromethoxy)benzenesulfonamide]

GI50 (H1650): 10 µM
Compound: O=S(=O)(N[C@@H]1CCCC(N2c3ccccc3CCc3ccccc32)[C@H]1O)c1ccc(Cl)cc1 (relative stereo) [Example 4, N-(3-(10,11-dihydro-5H-dibenzo[b,f]azepin-5-yl)-2-hydroxycyclohexyl)-4-(chloro)benzenesulfonamide]

GI50 (H1650): 20 µM
Compound: COc1ccc(S(=O)(=O)N[C@H]2CCC[C@@H](N3c4ccccc4CCc4ccccc43)[C@@H]2O)cc1 [Example 23, N-((1S,2S,3R)-3-(10,11-dihydro-5H-dibenzo[b,f]azepin-5-yl)-2-hydroxycyclohexyl)-4-methoxybenzenesulfonamide]

GI50 (H1650): 5 µM
Compound: O=S(=O)(N[C@H]1CCC[C@@H](N2c3ccccc3CCc3ccccc32)[C@@H]1O)c1ccc(CC(F)(F)F)cc1 [Example 30, N-(3-(10,11-dihydro-5H-dibenzo[b,f]azepin-5-yl)-2-hydroxycyclohexyl)-4-(2,2,2-trifluoroethyl)benzenesulfonamide]

GI50 (H1650): 20 µM
Compound: O=S(=O)(N[C@@H]1CCC(N2c3ccccc3CCc3ccccc32)[C@H]1O)c1ccc(Cl)cc1 (relative stereo) [Example 18, 4-chloro-N-((1S,2S,3R)-rel-3-(10,11-dihydro-5H-dibenzo[b,f]azepin-5-yl)-2-hydroxycyclopentyl)benzenesulfonamide]

GI50 (H1650): 10 µM
Compound: O=S(=O)(N[C@H]1CCC[C@@H](N2c3ccccc3CCc3ccccc32)[C@@H]1O)c1ccc(OC(F)F)cc1 (stereo in doubt) [Example 32, 4-(difluoromethoxy)-N-(3-(10,11-dihydro-5H-dibenzo[b,f]azepin-5-yl)-2-hydroxycyclohexyl)benzenesulfonamide]

GI50 (H1650): 15 µM
Compound: O=S(=O)(N[C@H]1CCCC(N2c3ccccc3CCc3ccccc32)[C@@H]1O)c1ccc(OC(F)(F)F)cc1 (relative stereo) [Example 2, N-((1,2-trans)-3-(10,11-dihydro-5H-dibenzo[b,f]azepin-5-yl)-2-hydroxycyclohexyl)-4-(trifluoromethoxy)benzenesulfonamide]

GI50 (H1650): 20 µM
Compound: CC(=O)c1ccc(S(=O)(=O)N[C@H]2CCC[C@@H](N3c4ccccc4CCc4ccccc43)[C@@H]2O)cc1 [Example 26, 4-Acetyl-N-((1S,2S,3R)-3-(10,11-dihydro-5H-dibenzo[b,f]azepin-5-yl)-2-hydroxycyclohexyl)benzenesulfonamide]

Continued, molecule first:

Compound: O=S(=O)(N[C@H]1CCC[C@@H](N2c3ccccc3CCc3cc(F)ccc32)[C@@H]1O)c1ccc(OC(F)(F)F)cc1 [Example 24, N-((1S,2S,3R)-3-(2-fluoro-10,11-dihydro-5H-dibenzo[b,f]azepin-5-yl)-2-hydroxycyclohexyl)-4-(trifluoromethoxy)benzenesulfonamide]
GI50 (H1650): 5 µM

Compound: O=S(=O)(N[C@H]1CCC[C@@H](N2c3ccccc3CCc3ccccc32)[C@@H]1O)c1ccc(OC(F)(F)F)c(Cl)c1 (stereo in doubt) [Example 33, 3-chloro-N-(3-(10,11-dihydro-5H-dibenzo[b,f]azepin-5-yl)-2-hydroxycyclohexyl)-4-(trifluoromethoxy)benzenesulfonamide]
GI50 (H1650): 5 µM

Compound: O=S(=O)(N[C@@H]1CCCC(N2c3ccccc3Sc3ccccc32)[C@H]1O)c1ccc(OC(F)(F)F)cc1 (relative stereo) [Example 20, N-((1R,2R,3S)-rel-2-hydroxy-3-(10H-phenothiazin-10-yl)cyclohexyl)-4-(trifluoromethoxy)benzenesulfonamide]
GI50 (H1650): 5 µM

Compound: O=S(=O)(N[C@H]1CCC[C@@H](N2c3ccc(F)cc3CCc3cc(F)ccc32)[C@@H]1O)c1ccc(OC(F)(F)F)cc1 [Example 22, N-((1S,2S,3R)-3-(2,8-difluoro-10,11-dihydro-5H-dibenzo[b,f]azepin-5-yl)-2-hydroxycyclohexyl)-4-(trifluoromethoxy)benzenesulfonamide]
GI50 (H1650): 7 µM

Compound: O=S(=O)(N[C@H]1CCC[C@@H](N2c3ccccc3CCc3ccccc32)[C@@H]1O)c1ccc(OC(F)(F)F)cc1Cl (stereo in doubt) [Example 29, 2-chloro-N-(3-(10,11-dihydro-5H-dibenzo[b,f]azepin-5-yl)-2-hydroxycyclohexyl)-4-(trifluoromethoxy)benzenesulfonamide]
GI50 (H1650): 5 µM

Compound: O=S(=O)(N[C@H]1CCC[C@@H](N2c3ccccc3CCc3ccccc32)[C@@H]1O)c1ccc(OC(F)(F)F)cc1 [Example 3a]
GI50 (Molt4 cells): 6 µM | Mean Tumor Volume(T) ([1]; 31 days): 485 mm³ | % T/C ([1]; end of experiment (31 days), tumor versus vehicle control, 100 mg/kg): 35% and 34.6% | GI50 (H1650): 5 µM | signs of toxicity (mucous diarrhea, abdominal stiffness and weight loss) [2]: no adverse signs were observed

Compound: O=S(=O)(N[C@@H]1CCCC(N2c3ccccc3Sc3ccccc32)[C@H]1O)c1ccc(Cl)cc1 (relative stereo) [Example 21, 4-chloro-N-((1R,2R,3S)-rel-2-hydroxy-3-(10H-phenothiazin-10-yl)cyclohexyl)benzenesulfonamide]
GI50 (H1650): 10 µM

Compound: O=S(=O)(N[C@H]1CCC[C@@H](N2c3ccccc3CCc3ccccc32)[C@@H]1O)c1ccc(C(F)(F)C(F)(F)F)cc1 [Example 31, N-(3-(10,11-dihydro-5H-dibenzo[b,f]azepin-5-yl)-2-hydroxycyclohexyl)-4-(perfluoroethyl)benzenesulfonamide]
GI50 (H1650): 5 µM

Compound: O=S(=O)(N[C@H]1CCC[C@@H](N2c3ccccc3C=Cc3ccccc32)[C@@H]1O)c1ccc(OC(F)(F)F)cc1 (racemic) [Example 25, rac-N-((1S,2S,3R)-3-(5H-dibenzo[b,f]azepin-5-yl)-2-hydroxycyclohexyl)-4-(trifluoromethoxy)benzenesulfonamide]
GI50 (H1650): 10 µM
